Source: EP1701622B1, “METHOD FOR WASHING CARCASS, MEAT, OR MEAT PRODUCTS WITH MEDIUM CHAIN PEROXYCARBOXYLIC ACID COMPOSITIONS” (ECOLAB INC., priority 2004, dated 2005)
Where two headings read alike, the source gives them in different places.

What was measured:
Format in all cases: cell-based
Bacterial Spores = assay: Sporicidal test against conventional compositions (Table 22); conditions: H2O2 35% pH 3.32, KK 2.0 wt-% (250 ppm POOA) pH 1.85, mixed peracid 1.5 wt-% (750 ppm peracid) pH 3.06, peroxyacetic 4.5 wt-% (2610 ppm POAA) pH 2.61
Procedure: (§1) Antimicrobial activity was determined according to two well established methods. The first method was the procedure set out in Germicidal and Detergent Sanitizing Action of Disinfectants, Official Methods of Analysis of the Association of Official Analytical Chemists, paragraph 960.09 and applicable sections, 15th Edition, 1990 (EPA Guideline 91-2). The second method was the procedure described in A.O.A.C. Use Dilution Methods, Official Methods of Analysis of the Association of Official Analytical Chemists, paragraph 955.14 and applicable sections, 15th Edition, 1990 (EPA Guideline 91-2). Briefly, antimicrobial activity of the present compositions was determined by exposing a one mL aliquot containing the target microorganism to 99 mL of the desired concentration of the test substance at the desired temperature. After the specified contact time, one mL of the test solution containing the microorganism was neutralized and enumerated for survivors.

E. coli = assay: Germicidal and detergent sanitizing action suspension test (AOAC 960.09); conditions: Escherichia coli, 0.5 min; for log reduction at 5 ppm / log reduction at 10 ppm: 30 Second Exposure at Room Temperature; for log reduction at 20 ppm / log reduction at 40 ppm / log reduction at 60 ppm: 30 seconds
Procedure: as §1
(§2) Antimicrobial activity was determined as described above in Example 4.
(§3) Test 1 included 5 min exposure of the microbe to composition AB at room temperature. The microbes in test 1 included E. aerogenes ATCC 13048 and S. aureus ATCC 6538. Test 2 included 30 sec exposure of the microbe to composition AB at room temperature. The microbes in test 2 included S. aureus ATCC 6538, E. coli ATCC 11229, and P. aeruginosa ATCC 13442.

S. aureus = assay: as above; conditions: Staphylococcus aureus, 0.5 min
Procedure: as §1, §2, §3

[1] = Soft water pH 3.91, Post Test pH 4.01

OO [Composition H2O2, hydrogen peroxide]
Log Reduction (Bacterial Spores; 40 °C, 30 sec): 1.19 log
Log Reduction (Bacterial Spores; 40 °C, 60 sec): 2.94 log
Log Reduction (Bacterial Spores; 40 °C, 120 sec): >6.30 log
Log Reduction (Bacterial Spores; 60 °C, 10 sec): 1.59 log
Log Reduction (Bacterial Spores; 60 °C, 20 sec): 4.85 log
Log Reduction (Bacterial Spores; 60 °C, 30 sec): 4.89 log
Log Reduction (Bacterial Spores; 80 °C, 10 sec): >6.30 log
Log Reduction (Bacterial Spores; 80 °C, 20 sec): >6.30 log
Log Reduction (Bacterial Spores; 80 °C, 30 sec): >6.30 log

CCCCCCCC(=O)OO [Pure POOA Crystals, peroxyoctanoic acid]
log reduction at 5 ppm (E. coli; Milli-Q water pH 4.04, Post Test pH 4.09): 1.34
log reduction at 5 ppm (E. coli; Milli-Q water pH 5.00, Post Test pH 5.03): 0.07
log reduction at 5 ppm (E. coli; Milli-Q water pH 5.98, Post Test pH 5.89): 0.11
log reduction at 5 ppm (E. coli; Milli-Q water pH 6.60, Post Test pH 6.24): 0.09
log reduction at 5 ppm (E. coli; [1]): 1.26
log reduction at 5 ppm (E. coli; Soft water pH 5.08* (pH drift of ~0.7 pH units), Post Test pH 5.79): 0.09
log reduction at 5 ppm (E. coli; Soft water pH 5.91* (pH drift of ~0.7 pH units), Post Test pH 6.68): 0.08
log reduction at 5 ppm (E. coli; Soft water pH 9.29, Post Test pH 9.12): 0.07
log reduction at 10 ppm (E. coli; Milli-Q water pH 4.04, Post Test pH 4.08): 6.04
log reduction at 10 ppm (E. coli; Milli-Q water pH 5.00, Post Test pH 4.98): 0.07
log reduction at 10 ppm (E. coli; Milli-Q water pH 5.98, Post Test pH 5.90): 0.1
log reduction at 10 ppm (E. coli; Milli-Q water pH 6.60, Post Test pH 5.80): 0.06
log reduction at 10 ppm (E. coli; [1]): 6.34
log reduction at 10 ppm (E. coli; Soft water pH 5.08, Post Test pH 5.67): 0.55
log reduction at 10 ppm (E. coli; Soft water pH 5.91, Post Test pH 6.68): 0.24
log reduction at 10 ppm (E. coli; Soft water pH 9.29, Post Test pH 9.09): 0.07
log reduction at 20 ppm (E. coli; 20 ppm, 500 ppm Synthetic Hard Water, pH 7.77, pH 7.68): 0.62
log reduction at 40 ppm (E. coli; 40 ppm, 500 ppm Synthetic Hard Water, pH 7.77, pH 7.61): 0.93
log reduction at 60 ppm (E. coli; 60 ppm, 500 ppm Synthetic Hard Water, pH 7.77, pH 7.54): 1.12
log reduction at 60 ppm (E. coli; pH 5.08, 60 ppm, Milli-Q water, pH 5.08): 4.68
log reduction at 40 ppm (E. coli; pH 5.28, 40 ppm, Milli-Q water, pH 5.28): 2.61
log reduction at 20 ppm (E. coli; pH 5.58, 20 ppm, Milli-Q water, pH 5.58): 0.55
log reduction at 5 ppm (S. aureus; 5 ppm, Milli-Q water pH 4.04, Post Test pH 4.09, 30 Second Exposure at Room Temperature, read-out: Log Reduction of S. aureus): 6.28
log reduction at 5 ppm (S. aureus; 5 ppm, Milli-Q water pH 5.00, Post Test pH 5.03, 30 Second Exposure at Room Temperature, read-out: Log Reduction of S. aureus): 5.01
log reduction at 5 ppm (S. aureus; 5 ppm, Milli-Q water pH 5.98, Post Test pH 5.89, 30 Second Exposure at Room Temperature, read-out: Log Reduction of S. aureus): 4.44
log reduction at 5 ppm (S. aureus; 5 ppm, Milli-Q water pH 6.60, Post Test pH 6.24, 30 Second Exposure at Room Temperature, read-out: Log Reduction of S. aureus): 6.04
log reduction at 5 ppm (S. aureus; 5 ppm, Soft water pH 3.91, Post Test pH 4.01, 30 Second Exposure at Room Temperature, read-out: Log Reduction of S. aureus): 5.82
log reduction at 5 ppm (S. aureus; 5 ppm, Soft water pH 5.08* (pH drift of ~0.7 pH units), Post Test pH 5.79, 30 Second Exposure at Room Temperature, read-out: Log Reduction of S. aureus): 5.16
log reduction at 5 ppm (S. aureus; 5 ppm, Soft water pH 5.91* (pH drift of ~0.7 pH units), Post Test pH 6.68, 30 Second Exposure at Room Temperature, read-out: Log Reduction of S. aureus): 4.19
log reduction at 5 ppm (S. aureus; 5 ppm, Soft water pH 9.29, Post Test pH 9.12, 30 Second Exposure at Room Temperature, read-out: Log Reduction of S. aureus): 0.1
log reduction at 10 ppm (S. aureus; Milli-Q water pH 4.04, Post Test pH 4.08, 30 Second Exposure at Room Temperature): > 6.82
log reduction at 10 ppm (S. aureus; Milli-Q water pH 5.00, Post Test pH 4.98, 30 Second Exposure at Room Temperature): > 6.82
log reduction at 10 ppm (S. aureus; Milli-Q water pH 5.98, Post Test pH 5.90, 30 Second Exposure at Room Temperature): 6.52
log reduction at 10 ppm (S. aureus; Milli-Q water pH 6.60, Post Test pH 5.80, 30 Second Exposure at Room Temperature): > 6.82
log reduction at 10 ppm (S. aureus; Soft water pH 3.91, Post Test pH 4.01, 30 Second Exposure at Room Temperature): 6.28
log reduction at 10 ppm (S. aureus; Soft water pH 5.08, Post Test pH 5.67, 30 Second Exposure at Room Temperature): 6.12
log reduction at 10 ppm (S. aureus; Soft water pH 5.91, Post Test pH 6.68, 30 Second Exposure at Room Temperature): > 6.82
log reduction at 10 ppm (S. aureus; Soft water pH 9.29, Post Test pH 9.09, 30 Second Exposure at Room Temperature): 0.26
log reduction at 5 ppm (S. aureus; concentration of 5 ppm, pH of ~5, 30 sec, RT, read-out: log reductions of Staphylococcus aureus): 5
